{
  "source": "patent US20020041889A1",
  "about": "“ENHANCING AGENT FOR DEGRADATION OF DESMOSOMES OR STRATUM CORNEUM DESQUAMATION” (priority 1997, published 2002)",
  "test_system": "desmoglein in a stratum corneum sheet (decomposition by trypsin-like and chymotrypsin-like enzymes)",
  "experiment": "Percentage of residual desmoglein in stratum corneum sheets (SDS-PAGE / immunoblot with anti-desmoglein antibody)",
  "assay_type": "biochemical, human",
  "conditions": "stratum corneum sheet (2 mg) from healthy subjects coated with 5 μl of a 5% aqueous solution of test compound; moisture content not greater than 30%; 37° C. for one week; average of three measurements; control = 100.00",
  "description": "Method of Evaluation (the percentage of residual desmoglein in stratum corneum sheets) This method of evaluation serves to evaluate the degree of decomposition of desmoglein in a stratum corneum sheet by trypsin-like and chymotrypsin-like enzymes, i.e., the degree of stratum corneum desquamation. […] Stratum corneum sheets were peeled from healthy subjects and soaked in an antiseptic and fungicidal solution (containing 60 μl/ml of kanamycin and 0.5% NaN3) for 30 seconds. Both sides of a stratum corneum sheet weighing 2 mg were coated with 5 μl of a 5% aqueous solution containing each of the test compounds shown in Table I below. A stratum corneum sheet coated with an aqueous solution containing no test compound was regarded as a control. These stratum corneum sheets were subjected to the following procedure. The stratum corneum sheets prepared in the above-described manner were placed under such conditions that the stratum corneum would have a moisture content of not greater than 30% at which the degradation of desmosomes was insufficient, and allowed to stand at 37° C. for one week. Thereafter, using 0.5 ml of a 0.1 M Tris buffer (pH 9) containing 9 M urea, 2% SDS and 1% mercaptoethanol, each of the stratum corneum sheets was extracted at 37° C. for 15 hours. Then, 0.7 ml of a sample buffer for SDS-PAGE (a two-fold concentrated Laemmli solution) was added to the resulting extract and heated for 15 minutes. 10 μl of this solution was taken and subjected to electrophoresis in a gel having a concentration of 7.5%. After electrophoresis, the proteins were transferred to a PVDF membrane and immunologically stained with an anti-desmoglein antibody and alkaline phosphatase-labelled secondary (anti-mouse lg) antibody. Then, the labelled protein was visualized with NBT/BCIP substrate. Thus, the amount of the desired protein was determined. Then, the above evaluation process was repeated except that the above-mentioned 5% aqueous solution of each of the test compounds was replaced with an aqueous solution which had been adjusted to contain 0.1% of L-alanine and 2.9% of N,N,N-trimethylglycine.",
  "data": [
    {"smiles": "C[C@@H](O)[C@H](N)C(=O)O", "note": "(racemic) [DL-Threonine]", "values": [
      {"measurement": "Percentage of residual desmoglein", "result": 97.50, "unit": "%"}
    ]},
    {"smiles": "N[C@@H](CO)C(=O)O", "note": "[L-Serine]", "values": [
      {"measurement": "Percentage of residual desmoglein", "result": 58.41, "unit": "%"}
    ]},
    {"smiles": "O=C(O)[C@@H]1CC(O)CN1", "note": "(stereo partly drawn) [4-Hydroxy-L-proline]", "values": [
      {"measurement": "Percentage of residual desmoglein", "result": 83.04, "unit": "%"}
    ]},
    {"smiles": "C[C@@H](O)[C@H](N)C(=O)O", "note": "[L-Threonine]", "values": [
      {"measurement": "Percentage of residual desmoglein", "result": 90.91, "unit": "%"}
    ]},
    {"smiles": "C[N+](C)(C)CC(=O)[O-]", "note": "[N,N,N-Trimethylglycine]", "values": [
      {"measurement": "Percentage of residual desmoglein", "result": 86.08, "unit": "%"}
    ]},
    {"smiles": "NC(CO)C(=O)O", "note": "(racemic) [DL-Serine]", "values": [
      {"measurement": "Percentage of residual desmoglein", "result": 69.44, "unit": "%"}
    ]},
    {"smiles": "CC(N)C(=O)O", "note": "(racemic) [DL-Alanine]", "values": [
      {"measurement": "Percentage of residual desmoglein", "result": 54.55, "unit": "%"}
    ]},
    {"smiles": "NCC(=O)O", "note": "[Glycine]", "values": [
      {"measurement": "Percentage of residual desmoglein", "result": 84.13, "unit": "%"}
    ]},
    {"smiles": "CCCCCCCCCCCC(=O)NCC(=O)[O-].[K+]", "note": "[N-Dodecanoylglycine potassium salt]", "values": [
      {"measurement": "Percentage of residual desmoglein", "result": 78.58, "unit": "%"}
    ]}
  ]
}
